Where “and” joins values, the source holds several entries; their conditions need not be identical. Equal values may be shown once.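 Growth conditions: 96-well plates. Treatment: test compound, 48 hours, 5 concentrations. Analysis: linear interpolation between bracketing concentrations; unreached endpoints set to highest concentration. Abbreviation: GI50, concentration required for 50% inhibition of growth. TGI is the concentration that stops growth completely.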 *1 amine or outer side, *2 acyl side, *3 side chain or, on linkers, in order; H or OH if unused. Where a SMILES comes first, the peptide text is derived from it. [ ]: non-standard residue; d: D form. The star is where a group is joined. X12 = NCCCCC(N[*:1])C(=O)CN1CCCC1C(=O)[*:2]; Pentadecanoyl = CCCCCCCCCCCCCCC(=O)*
Assays:
Experiment in all cases: NCI-60 cell line screen, 48 h
[1] = system: ACHN renal
[2] = system: HS 578T breast
[3] = system: MDA-N
[4] = system: NCI-H226 lung
[5] = system: OVCAR-3 ovarian
[6] = system: OVCAR-8 ovarian
[7] = system: SK-MEL-2 melanoma
[8] = system: SN12C renal
[9] = system: HCC-2998 colon
[10] = system: HL-60(TB) leukemia
[11] = system: SR leukemia

SMILES	TGI [1] [µM]	TGI [2] [µM]	TGI [3] [µM]	TGI [4]	TGI [5] [µM]	TGI [6] [µM]	TGI [7]	TGI [8] [µM]	GI50 [9] [µM]	TGI [9]	GI50 [10] [µM]	TGI [10] [µM]	GI50 [2] [µM]	GI50 [4]	GI50 [5] [µM]	GI50 [6] [µM]	GI50 [8] [µM]	GI50 [11] [µM]	TGI [11] [µM]	GI50 [7] [µM]
CC(C)(C)C1=CC(O)(c2c3ccccc3c(C3(O)C=C(C(C)(C)C)C(=O)C(C(C)(C)C)=C3)c3ccccc23)C=C(C(C)(C)C)C1=O	> 100	> 100	> 100	> 100 µM	> 100	> 100	> 100 µM	> 100	–	–	–	–	–	–	–	–	–	–	–	–
COc1ccc(Nc2ccnc3cc(Cl)ccc23)cc1CN(CCCl)CCCl	–	> 100	–	4.17 µM	6.04	> 100	–	6	1.68	4.54 µM	0.944	3.96	3.14	1.63 µM	1.95	2.2	1.24	0.158	0.699	–
CC1CC2OC(=N)C1(C#N)C2(C#N)C#N (stereo not drawn)	> 100	> 100	33	> 100 µM	–	> 100	43.5 µM	33.6	–	34.4 µM	–	–	–	–	–	–	–	–	> 100	–
[O-][n+]1cc(SCc2ccccc2)ncc1SCc1ccccc1	> 10	> 10	–	> 10 µM	> 10	> 10	> 10 µM	> 10	–	> 10 µM	–	> 10	–	–	–	–	–	–	> 10	–
CCCCCCCCCCCCCCC(=O)NC(CCCCN)C(=O)CN1CCCC1C(=O)NCC(=O)NC(Cc1ccccc1)C(=O)N1CCCC1C(=O)NC(CO)C(=O)NC(Cc1ccc(O)cc1)C(=O)NC(CCCCN)C(=O)NC(CC(C)C)C(=O)NC(CCCN=C(N)N)C(=O)N1CCCC1C(=O)NCC(N)=O (stereo not drawn) (Pentadecanoyl-[X12]GFPSYKLRPG-NH2; configuration not given here)	–	> 100	–	38.6 µM	64.6	64.4	> 100 µM	–	17.7	35.2 µM	27.3	90.8	38.6	17.8 µM	28	27.8	–	16.2	50.8	37.5
CC(=O)OCC12C(OC(C)=O)C[C@@H](C)C3(CC(c4ccoc4)OC3=O)C1CCC(OC(C)=O)C21CO1 (stereo partly drawn)	> 100	> 100	> 100	> 100 µM	> 100	> 100	> 100 µM	> 100	–	> 100 µM	–	> 100	–	–	–	–	–	–	–	–
O=C(CSCC(=O)N/N=C\c1cccc(Br)c1)N/N=C\c1cccc(Br)c1	26.4	35.7	–	36.5 µM	26.6	35.4	91.3 µM	35.2	–	–	–	> 100	–	–	–	–	–	–	66.1	–
COC1OC2COC(c3ccccc3)OC2C(OC(=S)c2ccccc2)C1O (stereo not drawn)	> 100	> 100	> 100	> 100 µM	> 100	39.3	> 100 µM	> 100	–	–	–	–	–	–	–	–	–	–	> 100	–
Cc1cccc(-c2cc(=O)c3cc(C)cnc3[nH]2)c1	> 100	–	–	2.79 µM	–	–	> 100 µM	> 94.6	–	6.82 µM	–	0.355	–	–	–	–	–	–	1.7	–
COc1cc(OC)cc(-c2nc3ccccc3c(=O)[nH]2)c1	> 100	> 100	> 100	> 100 µM	> 100	63.8	> 100 µM	> 100	–	> 100 µM	–	> 100	–	–	–	–	–	–	–	–
O=S1(=O)OCCOS(=O)(=O)C1S(=O)(=O)c1cccc2ccccc12	> 100	–	> 100	–	> 100	> 100	> 100 µM	> 100	–	> 100 µM	–	> 100	–	–	–	–	–	–	> 100	–
CCOC(=O)c1sc2[n+](c1C)C(=O)/C(=C/c1ccccc1Cl)S2	40	> 73.3	0.565	23.1 µM	21.1	35	> 74.7 µM	> 100	–	–	–	> 62.9	–	–	–	–	–	–	17	–
C[S+](C)C1(c2ccccc2)C(=O)c2ccccc2C1=O	> 100	60.8	–	> 100 µM	> 100	> 100	> 73.2 µM	> 100	–	42.8 µM	–	> 31.6	–	–	–	–	–	–	> 100	–
O=C(c1cccs1)N(C(=O)N1CCCCC1)c1ccccc1	> 100	> 100	> 100	> 100 µM	> 100	> 100	> 100 µM	> 100	–	–	–	> 100	–	–	–	–	–	–	–	–
Cn1c(-c2cccs2)cc(-c2ccsc2)c1-c1ccsc1	> 100	> 100	> 100	> 100 µM	> 100	> 100	–	> 100	–	> 100 µM	–	–	–	–	–	–	–	–	> 100	–
Cc1cc(C)c(N)c(CO)c1	> 100	> 100	> 100	1.73 µM and 4.56 µM	> 100	> 100	> 100 µM	> 100	–	> 100 µM	–	–	–	0.236 µM and 1.26 µM	–	–	–	–	> 100	–
Oc1[nH]c2ccccc2c1N=NC(=S)NCc1ccccn1	2.25	47.7	19.9	10.5 µM	15.3	26.7	28.7 µM	14.5	–	16.5 µM	–	–	–	–	–	–	–	–	–	–
Fc1sc2c(c1F)C1CCC2C1 (stereo not drawn)	> 100	69.6	> 100	> 100 µM	> 100	> 100	> 100 µM	> 100	–	> 100 µM	–	–	–	–	–	–	–	–	–	–
CC1=CCC(=O)[C@]2(C)C(CC(=O)O)[C@]3(C)C4=C(C)C(c5ccoc5)C[C@@H]4O[C@@H]3[C@H](O)[C@@H]12 (stereo partly drawn)	> 100	> 100	> 100	–	> 100	> 100	> 100 µM	> 100	–	> 100 µM	–	> 100	–	–	–	–	–	–	–	–
Cc1cccc2c1C(=O)/C(=C/c1ccccc1C(=O)O)C2	> 100	> 100	> 100	> 100 µM	> 100	> 100	> 100 µM	> 100	–	> 100 µM	–	> 100	–	–	–	–	–	–	–	–
O=c1cc(-c2ccccc2)[nH]c2c(F)ccc(F)c12	> 100	–	–	> 100 µM	–	> 100	77.1 µM	> 100	–	–	–	> 100	–	–	–	–	–	–	90.3	–

SMILES	TGI [1] [µM]	TGI [2] [µM]	TGI [3] [µM]	TGI [4]	TGI [5] [µM]	TGI [6] [µM]	TGI [7]	TGI [8] [µM]	GI50 [9] [µM]	TGI [9]	GI50 [10] [µM]	TGI [10] [µM]	GI50 [2] [µM]	GI50 [4]	GI50 [5] [µM]	GI50 [6] [µM]	GI50 [8] [µM]	GI50 [11] [µM]	TGI [11] [µM]	GI50 [7] [µM]
CCOC(=O)C1=C(C)N(c2ccc(Cl)cc2)C2(O)C=CC(=O)C3C(=O)N(c4ccccc4)C(=O)C132 (stereo not drawn)	3.07	12.8	8.92	–	2.75	6.32	3.53 µM	5.28	–	–	–	6.21	–	–	–	–	–	–	1.14	–
CN(C)CC(C)(C)C(=O)/C=C/c1ccccc1	33.3	–	–	29.3 µM	40.5	> 100	–	33.7	–	–	–	26.7	–	–	–	–	–	–	–	–
NS(=O)(=O)c1ccc(NS(=O)(=O)c2ccc(NC(=O)N(c3ccccc3)c3ccccc3)cc2)cc1	> 100	> 100	> 100	> 100 µM	50.2	> 100	> 100 µM	> 100	–	–	–	–	–	–	–	–	–	–	–	–
CCCCCC(=O)OCC1(CO)C/C(=C/CC(C(C)C)C(C)C)C(=O)O1 (stereo not drawn)	> 75	> 75	> 75	> 75 µM	> 75	> 75	> 75 µM	> 75	–	> 75 µM	–	–	–	–	–	–	–	–	–	–
C/C(=N/OCCC(=O)O)C1CC1	> 100	–	–	> 100 µM	> 100	> 100	> 100 µM	> 100	–	> 100 µM	–	> 100	–	–	–	–	–	–	> 100	–
Cc1cnc2[nH]c(-c3sccc3C)cc(=O)c2c1	> 100	6.01	2.96	39.3 µM	> 100	> 100	> 100 µM	> 100	–	96.8 µM	–	–	–	–	–	–	–	–	> 100	–
CN1C(=O)[C@](C)(Cc2ccc(F)cc2)N(C(=O)OC(C)(C)C)[C@@H]1C(C)(C)C	> 100	–	> 100	67.3 µM	84	91.7	> 100 µM	32.4	–	76.2 µM	–	26.2	–	–	–	–	–	–	43.9	–
CCC(C)Cn1c(C)nc2c1C(=O)c1ccccc1C2=O (stereo not drawn)	> 100	–	–	> 100 µM	66.7	> 100	76.5 µM	> 100	–	> 100 µM	–	28.5	–	–	–	–	–	–	> 100	–
Nc1nc(Cl)cc(NCC2CC(O)(CO)C2)n1 (stereo not drawn)	> 100	> 100	> 100	> 100 µM	> 100	> 100	> 100 µM	> 100	–	> 100 µM	–	> 100	–	–	–	–	–	–	–	–
CC1CC/C(=C\c2ccc(F)cc2)C2=C1C(c1ccc(F)cc1)NC(=S)N2 (stereo not drawn)	> 100	> 100	> 100	> 100 µM	> 100	> 100	> 100 µM	> 100	–	–	–	> 100	–	–	–	–	–	–	–	–
Cc1cc(N)c2cc(NC(=O)CCCCCCCCC(=O)Nc3ccc4nc(C)cc(N)c4c3)ccc2n1	> 100	–	–	56.3 µM	> 100	> 100	> 100 µM	26.6	–	> 82.9 µM	–	> 100	–	–	–	–	–	–	> 100	–
COc1ccc(OC)c([N+](=O)[O-])c1-c1nc2sc(C)cn2c1/C=N/N=C(N)N	> 100	97.9	–	92.7 µM	85.6	76.8	60.2 µM	90.1	–	60.3 µM	–	–	–	–	–	–	–	–	–	–
O=C(Nc1ccccc1C(=O)O)C(=Cc1ccccc1O)NC(=O)c1ccccc1	> 100	> 100	–	> 100 µM	> 100	> 100	> 100 µM	> 100	–	> 100 µM	–	> 100	–	–	–	–	–	–	> 100	–
O=C(O)CCC(NC(=O)/C(=C/c1ccccc1)NC(=O)c1ccccc1)C(=O)O (stereo not drawn)	> 100	> 100	> 100	> 100 µM	> 100	> 100	> 100 µM	> 100	–	> 100 µM	–	> 100	–	–	–	–	–	–	–	–
COc1cc2c3c4[n+](cc2c(OC)c1OC)CCC4CCC3 (stereo not drawn)	> 100	> 100	> 100	> 100 µM	> 100	> 100	> 100 µM	> 100	–	> 100 µM	–	–	–	–	–	–	–	–	> 100	–
Cc1nc(C)c(C(=O)NNC(=O)c2ccccc2)cc1C(=O)NNC(=O)c1ccccc1	> 100	> 100	> 100	> 100 µM	> 100	> 100	> 100 µM	> 100	–	> 100 µM	–	> 100	–	–	–	–	–	–	–	–
c1ccc(C2C3=C(CCCC3)Nc3nnnn32)cc1 (stereo not drawn)	> 100	> 100	> 100	–	> 100	> 100	> 100 µM	> 100	–	–	–	> 100	–	–	–	–	–	–	> 100	–
COc1cccc2c1C(=O)c1c(O)c3c(c(O)c1C2=O)C[C@@](O)(C(=O)CO)CC3OC1CC(NCCCCC(OC(C)=O)OC(C)=O)C(O)C(C)O1 (stereo partly drawn)	0.0057	–	–	0.00568 µM	–	0.0614	0.00435 µM and 0.00331 µM	> 1	–	0.00495 µM and 0.00577 µM	–	0.00428	–	–	–	0.00179	0.000935	–	0.0027	0.00171
COc1ccc(-c2nc3ncccn3c2-c2ccc(S(C)(=O)=O)cc2)cc1	> 100	> 100	–	–	> 100	> 100	> 100 µM	> 100	–	–	–	> 100	–	–	–	–	–	–	> 100	–
CC(=O)c1nc(C#N)c(N)o1	> 100	> 100	> 100	> 100 µM	> 100	> 100	> 100 µM	> 100	–	> 100 µM	–	–	–	–	–	–	–	–	–	–
N#CC(NNC(=O)c1c(Cl)c(Cl)c(Cl)c(Cl)c1-c1nc2ccc(C(=O)c3ccccc3)cc2[nH]1)c1cccc(Oc2ccccc2)c1 (stereo not drawn)	88.8	–	49.6	53.1 µM	> 100	> 100	47.2 µM	67.2	–	–	–	83.6	–	–	–	–	–	–	54.4	–
